Data on six compounds can be found in ChEMBL document CHEMBL1201862, “PubChem BioAssay data set” (2004).

Molecules are shown by their SMILES.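 Growth conditions: 96-well plates. Treatment: test compound, 48 hours, 5 concentrations. Analysis: linear interpolation between bracketing concentrations; unreached endpoints set to highest concentration. Here, GI50 denotes the concentration required for 50% inhibition of growth.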 Activity calls are given as the source filed them. No stated cut-off is given here; in the data, active = GI50 up to about 1.1 µM and inactive = higher. A value given as a limit tells only on which side of the number the result lay.

Some test systems named below: A498; CCRF-CEM; DU-145; HCT-116; HCT-15; HL-60; KM12; LOX IMVI; MCF7; NCI-H226; NCI-H522; SF-268; SF-295; SK-MEL-28; SK-MEL-5; SK-OV-3; SN12C; SR; T47D; UO-31.
What all share (assay): NCI-60 cell line screen, 48 h

For the compound `CCOP(=O)(OCC)C(Nc1cccc([N+](=O)[O-])c1)c1ccccc1` (stereo not given), the GI50 in the assay on A498 is > 100 µM (inactive); in the assay on CCRF-CEM, 68.1 µM (inactive); with DU-145, > 100 µM (inactive); in the assay with HCT-116, 65 µM (inactive); in the assay with HCT-15 it was 71.6 µM; in the assay with HL-60, 39.9 µM (inactive). The GI50 in the assay with KM12 is > 100 µM (inactive); with LOX IMVI, 73.3 µM (inactive); in the assay on MCF7, > 100 µM (inactive); with NCI-H226, > 100 µM (inactive); in the assay with NCI-H522, 90.2 µM (inactive); in the assay on SF-268, > 100 µM (inactive). Further, the GI50 in the assay with SF-295 was > 100 µM (inactive); with SK-MEL-28 it was > 100 µM (inactive); in the assay on SK-MEL-5, 64.3 µM (inactive); with SK-OV-3, > 100 µM (inactive); in the assay with SN12C, > 100 µM (inactive); in the assay on SR it was > 100 µM (inactive). In addition, the GI50 in the assay on T47D was 18.8 µM (inactive); in the assay with UO-31 it was 48.8 µM (inactive).
`CC(=O)O[C@@H]1C(=O)N(c2ccccc2)[C@@H]1c1cc2ccccc2c2ccccc12`: the GI50 in the assay on A498 is > 100 µM (inactive); in the assay on CCRF-CEM, 25.6 µM (inactive); in the assay with DU-145, 40.8 µM (inactive); in the assay with HCT-116 it was 27.5 µM (inactive); with HCT-15, 33.1 µM; in the assay with HL-60, 26.4 µM (inactive). In addition, the GI50 in the assay with KM12 was 20.3 µM (inactive); in the assay with LOX IMVI it was 20 µM (inactive); with MCF7, 34.2 µM (inactive); in the assay on NCI-H226 it was 7.1 µM (inactive); with NCI-H522, 3.01 µM (inactive); in the assay with SF-268 it was 44.3 µM (inactive). The GI50 was 38 µM (inactive) with SF-295; 56 µM (inactive) with SK-MEL-28; 23.2 µM (inactive) with SK-MEL-5; 47.8 µM (inactive) in the assay on SK-OV-3; 34.4 µM (inactive) in the assay on SN12C; 15.5 µM (inactive) in the assay on SR. Besides, the GI50 was 18.7 µM (inactive) in the assay on T47D and 22.2 µM (inactive) in the assay on UO-31.
In the case of `O=C(O)CCc1nc2ccccc2[nH]1` [PROCODAZOLE], the GI50 in the assay with A498 was > 100 µM (inactive); in the assay with CCRF-CEM, > 100 µM (inactive); in the assay with DU-145, > 100 µM (inactive); in the assay with HCT-116 it was > 100 µM (inactive); in the assay with HCT-15 it was over 100 µM; in the assay with HL-60 it was > 100 µM (inactive). The GI50 in the assay on KM12, in the assay with LOX IMVI, in the assay on MCF7, with NCI-H226, with NCI-H522 and in the assay with SF-268 was > 100 µM (inactive) each time. The GI50 in the assay with SF-295 is > 100 µM (inactive); with SK-MEL-28 it was > 100 µM (inactive); with SK-MEL-5 it was > 100 µM (inactive); in the assay with SK-OV-3, 0.237 µM (active); with SN12C, > 100 µM (inactive); in the assay on SR it was > 100 µM (inactive). Moreover, the GI50 in the assay on T47D and with UO-31 was > 100 µM (inactive) each time.
With `N#C/C(=C/N1C(=O)/C(=C/c2ccc([N+](=O)[O-])cc2)SC1=S)c1nc2ccccc2s1`, the GI50 in the assay on A498 is 12.1 µM (inactive); in the assay with CCRF-CEM it was 24.5 µM (inactive); with DU-145, 31.8 µM (inactive); in the assay on HCT-116, 14.3 µM (inactive); with HCT-15, 21.6 µM; in the assay on HL-60, 17.5 µM (inactive). Besides, the GI50 is 28.2 µM (inactive) in the assay on KM12; 26.4 µM (inactive) in the assay with LOX IMVI; 15.6 µM (inactive) in the assay on MCF7; 12.2 µM (inactive) in the assay on NCI-H226; 12.6 µM (inactive) in the assay on NCI-H522; 24.7 µM (inactive) in the assay with SF-268. Further, the GI50 is 11.3 µM (inactive) in the assay with SF-295; 30.1 µM (inactive) with SK-MEL-28; 11.4 µM (inactive) in the assay with SK-MEL-5; 15.9 µM (inactive) in the assay on SK-OV-3; 23.5 µM (inactive) in the assay on SN12C; 25.6 µM (inactive) with SR. Further, the GI50 with T47D is 8.85 µM (inactive); with UO-31, 16.1 µM (inactive).
On to `O=C(c1ccc(Cl)c(Cl)c1)N(Cc1cccnc1)C(=S)N(Cc1cccnc1)C(=O)c1ccc(Cl)c(Cl)c1`, for which the GI50 with A498 is 33.9 µM (inactive); with CCRF-CEM it was 94 µM (inactive); with DU-145, 33.2 µM (inactive); in the assay on HCT-116, 25.2 µM (inactive); in the assay on HCT-15, 20 µM; in the assay with HL-60 it was 49.3 µM (inactive). For the same compound, the GI50 was 28.1 µM (inactive) with KM12; 30.7 µM (inactive) with LOX IMVI; 7.06 µM (inactive) in the assay on MCF7; 31.8 µM (inactive) with NCI-H226; 20.9 µM (inactive) in the assay with NCI-H522; 36.1 µM (inactive) with SF-268. The GI50 in the assay with SF-295 was 24.4 µM (inactive); in the assay with SK-MEL-28, 52.5 µM (inactive); in the assay on SK-MEL-5, 27.7 µM (inactive); in the assay on SK-OV-3, > 100 µM (inactive); in the assay with SN12C it was 24.1 µM (inactive); with SR, 17.5 µM (inactive). The GI50 is 26.7 µM (inactive) with T47D and 17.9 µM (inactive) in the assay with UO-31.
Turning to `C/C(=N\NC(=S)NC(C)C)c1nc2cccnc2[nH]1`, the GI50 with A498 is > 47.6 µM (inactive); with CCRF-CEM, 2.88 µM (inactive); with DU-145 it was 51.1 µM (inactive); with HCT-116 it was 11.3 µM (inactive); with HCT-15, 11.3 µM; in the assay on HL-60 it was 8.93 µM (inactive). Also, the GI50 in the assay on KM12 is 65.8 µM (inactive); in the assay on LOX IMVI, 30.2 µM (inactive); in the assay on MCF7, 21.9 µM (inactive); with NCI-H226 it was 9.25 µM (inactive); in the assay on NCI-H522 it was 13.8 µM (inactive); in the assay on SF-268 it was 14.8 µM (inactive). In addition, the GI50 is 12 µM (inactive) with SF-295; > 100 µM (inactive) in the assay with SK-MEL-28; 13.1 µM (inactive) with SK-MEL-5; 12.7 µM (inactive) with SK-OV-3; > 56.5 µM (inactive) with SN12C; 11.7 µM (inactive) in the assay with SR. In addition, the GI50 was 0.33 µM (active) in the assay with T47D and 3.78 µM (inactive) with UO-31.
